Measured values as given in US7880007B2, “Bicyclic substituted phenyl piperidine modulators of muscarinic receptors” (Vertex Pharmaceuticals Incorporated, priority 2004, dated 2011).

Legend:
Type in all cases: cell-based
M1 muscarinic receptor = target: T1, M1 muscarinic receptor (Homo sapiens, UniProt P11229); experiment: Functional mobilization of intracellular calcium (FLIPR), M1-CHO cells; settings: for Emax: 100% efficacy = maximum response obtained with the Carbachol control; for M1 Activity: M1-CHO cells, calcium mobilization (FLIPR)
T1 construct: expressed in transfected cells; host or cells: CHO (M1-CHO)
T1 sequence (P11229 1-460): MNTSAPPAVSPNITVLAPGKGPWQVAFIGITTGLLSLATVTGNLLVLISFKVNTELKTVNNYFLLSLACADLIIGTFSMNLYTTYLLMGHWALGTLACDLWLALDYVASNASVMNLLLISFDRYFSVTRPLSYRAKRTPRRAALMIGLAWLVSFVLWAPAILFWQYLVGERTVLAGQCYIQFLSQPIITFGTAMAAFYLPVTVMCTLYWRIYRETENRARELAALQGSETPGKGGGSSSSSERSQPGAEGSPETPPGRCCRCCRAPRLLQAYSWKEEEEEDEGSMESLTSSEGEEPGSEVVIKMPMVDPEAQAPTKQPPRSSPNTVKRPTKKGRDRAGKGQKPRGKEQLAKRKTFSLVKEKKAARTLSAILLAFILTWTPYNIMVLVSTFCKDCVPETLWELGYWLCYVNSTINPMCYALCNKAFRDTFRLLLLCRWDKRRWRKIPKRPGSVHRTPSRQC
Procedure, shortened: (§1)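 Calcium mobilisation read by FLIPR over 60 s (ex 488/em 540 nm) in recombinant muscarinic CHO lines loaded with calcium dye plus 1 mM probenecid. Compounds tested as agonists alone, or as inhibitors against EC80 carbachol after 15 min pre-incubation or co-addition; 0.5% DMSO; efficacy scaled to carbachol maximal response.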

M4 muscarinic receptor = target: T2, M4 muscarinic receptor (Homo sapiens, UniProt P08173); experiment: Functional mobilization of intracellular calcium (FLIPR), M4-CHO cells; settings: for Emax: 100% efficacy = maximum response obtained with the Carbachol control; for M4 Activity: M4-CHO cells, calcium mobilization (FLIPR)
T2 construct: expressed in transfected cells; host or cells: CHO (M4-CHO)
T2 sequence (P08173 1-479): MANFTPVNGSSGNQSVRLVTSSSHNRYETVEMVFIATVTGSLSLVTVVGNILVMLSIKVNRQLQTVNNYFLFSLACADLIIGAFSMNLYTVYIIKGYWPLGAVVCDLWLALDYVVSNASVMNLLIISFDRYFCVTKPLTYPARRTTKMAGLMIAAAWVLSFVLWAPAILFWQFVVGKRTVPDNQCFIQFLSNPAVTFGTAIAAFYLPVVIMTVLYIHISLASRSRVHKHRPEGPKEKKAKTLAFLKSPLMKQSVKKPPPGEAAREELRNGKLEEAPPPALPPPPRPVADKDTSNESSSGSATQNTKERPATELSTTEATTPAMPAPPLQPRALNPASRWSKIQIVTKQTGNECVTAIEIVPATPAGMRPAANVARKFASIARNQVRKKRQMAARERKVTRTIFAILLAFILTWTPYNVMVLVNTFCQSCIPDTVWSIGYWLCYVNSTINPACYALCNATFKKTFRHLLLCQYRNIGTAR
Procedure, shortened: as §1

M2 muscarinic receptor = target: T3, M2 muscarinic receptor (Homo sapiens, UniProt P08172); experiment: Functional mobilization of intracellular calcium (FLIPR), M2-CHO cells; settings: for Emax: 100% efficacy = maximum response obtained with the Carbachol control; for M2 Activity: M2-CHO cells, calcium mobilization (FLIPR)
T3 construct: expressed in transfected cells; host or cells: CHO (M2-CHO)
T3 sequence (P08172 1-466): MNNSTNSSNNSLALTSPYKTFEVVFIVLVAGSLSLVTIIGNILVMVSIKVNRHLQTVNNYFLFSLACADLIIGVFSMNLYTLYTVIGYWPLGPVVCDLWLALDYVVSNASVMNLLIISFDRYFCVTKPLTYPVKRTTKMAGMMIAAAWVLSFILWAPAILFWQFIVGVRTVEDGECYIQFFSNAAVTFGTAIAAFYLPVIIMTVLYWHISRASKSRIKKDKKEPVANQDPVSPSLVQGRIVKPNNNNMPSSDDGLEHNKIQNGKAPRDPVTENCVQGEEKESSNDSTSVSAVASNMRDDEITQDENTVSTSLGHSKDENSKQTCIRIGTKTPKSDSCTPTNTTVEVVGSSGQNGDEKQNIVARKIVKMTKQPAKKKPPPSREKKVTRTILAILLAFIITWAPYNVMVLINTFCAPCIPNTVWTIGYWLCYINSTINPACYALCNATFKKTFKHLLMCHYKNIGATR
Procedure, shortened: as §1

M3 muscarinic receptor = target: T4, M3 muscarinic receptor (Homo sapiens, UniProt P20309); experiment: Functional mobilization of intracellular calcium (FLIPR), M3-CHO cells; settings: for Emax: 100% efficacy = maximum response obtained with the Carbachol control; for M3 Activity: M3-CHO cells, calcium mobilization (FLIPR)
T4 construct: expressed in transfected cells; host or cells: CHO (M3-CHO)
T4 sequence (P20309 whole entry): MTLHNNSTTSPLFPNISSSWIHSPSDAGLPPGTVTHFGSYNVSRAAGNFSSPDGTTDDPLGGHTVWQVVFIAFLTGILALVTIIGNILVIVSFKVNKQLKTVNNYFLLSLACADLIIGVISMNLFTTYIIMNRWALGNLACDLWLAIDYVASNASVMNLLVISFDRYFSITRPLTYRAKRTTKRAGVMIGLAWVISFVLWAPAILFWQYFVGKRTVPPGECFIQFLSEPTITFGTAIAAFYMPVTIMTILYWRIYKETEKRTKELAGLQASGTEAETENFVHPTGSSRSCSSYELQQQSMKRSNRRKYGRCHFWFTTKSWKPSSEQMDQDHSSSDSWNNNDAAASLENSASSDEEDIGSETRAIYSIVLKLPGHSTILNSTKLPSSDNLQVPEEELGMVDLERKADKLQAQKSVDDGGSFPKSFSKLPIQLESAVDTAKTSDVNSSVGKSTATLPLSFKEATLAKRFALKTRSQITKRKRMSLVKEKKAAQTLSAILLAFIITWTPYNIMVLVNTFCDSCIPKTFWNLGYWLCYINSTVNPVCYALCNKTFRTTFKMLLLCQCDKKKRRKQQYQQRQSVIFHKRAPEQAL
Procedure, shortened: as §1

O=C(COc1ccccc1C1CCN([C@H]2C[C@H]3CC[C@H]2C3)CC1)c1ccc(F)cc1 [Compound 12]
Emax (M1 muscarinic receptor): < 25% | M1 Activity (M1 muscarinic receptor): + (activity was measured to be greater than 5.0 μM) | Emax (M4 muscarinic receptor): 25 to 100% | M4 Activity (M4 muscarinic receptor): ++ (activity was measured to be from 1.0 μM to 5.0 μM) | Emax (M2 muscarinic receptor): 25 to 100% | M2 Activity (M2 muscarinic receptor): + (activity was measured to be greater than 5.0 μM) | Emax (M3 muscarinic receptor): < 25% | M3 Activity (M3 muscarinic receptor): + (activity was measured to be greater than 5.0 μM)

COc1ccccc1-c1ccc(OC)c(C2CCN([C@H]3C[C@H]4CC[C@H]3C4)CC2)c1 [Compound 13]
Emax (M1 muscarinic receptor): < 25% | M1 Activity (M1 muscarinic receptor): + (activity was measured to be greater than 5.0 μM) | Emax (M4 muscarinic receptor): < 25% | M4 Activity (M4 muscarinic receptor): + (activity was measured to be greater than 5.0 μM) | Emax (M2 muscarinic receptor): < 25% | M2 Activity (M2 muscarinic receptor): + (activity was measured to be greater than 5.0 μM) | Emax (M3 muscarinic receptor): < 25% | M3 Activity (M3 muscarinic receptor): + (activity was measured to be greater than 5.0 μM)

CCOC(=O)N1CCC(CN2CCC(c3cc(Cl)ccc3OC)CC2)CC1 [Compound 14]
Emax (M1 muscarinic receptor): 25 to 100% | M1 Activity (M1 muscarinic receptor): +++ (activity was measured to be less than 1.0 μM) | Emax (M4 muscarinic receptor): 25 to 100% | M4 Activity (M4 muscarinic receptor): +++ (activity was measured to be less than 1.0 μM) | Emax (M2 muscarinic receptor): 25 to 100% | M2 Activity (M2 muscarinic receptor): +++ (activity was measured to be less than 1.0 μM) | Emax (M3 muscarinic receptor): < 25% | M3 Activity (M3 muscarinic receptor): + (activity was measured to be greater than 5.0 μM)

COc1ccccc1C1CCN(C2CCCC2)CC1 [Compound 15]
Emax (M1 muscarinic receptor): < 25% | M1 Activity (M1 muscarinic receptor): + (activity was measured to be greater than 5.0 μM) | Emax (M4 muscarinic receptor): 25 to 100% | M4 Activity (M4 muscarinic receptor): +++ (activity was measured to be less than 1.0 μM) | Emax (M2 muscarinic receptor): < 25% | M2 Activity (M2 muscarinic receptor): + (activity was measured to be greater than 5.0 μM) | Emax (M3 muscarinic receptor): < 25% | M3 Activity (M3 muscarinic receptor): + (activity was measured to be greater than 5.0 μM)

O=C(COc1ccccc1C1CCN([C@H]2C[C@H]3CC[C@H]2C3)CC1)c1cccc(Cl)c1 [Compound 16]
Emax (M1 muscarinic receptor): < 25% | M1 Activity (M1 muscarinic receptor): + (activity was measured to be greater than 5.0 μM) | Emax (M4 muscarinic receptor): 25 to 100% | M4 Activity (M4 muscarinic receptor): ++ (activity was measured to be from 1.0 μM to 5.0 μM) | Emax (M2 muscarinic receptor): < 25% | M2 Activity (M2 muscarinic receptor): + (activity was measured to be greater than 5.0 μM) | Emax (M3 muscarinic receptor): < 25% | M3 Activity (M3 muscarinic receptor): + (activity was measured to be greater than 5.0 μM)

COc1ccc(-c2ccc(C(=O)N3CCCC3)cc2)cc1C1CCN([C@H]2C[C@H]3CC[C@H]2C3)CC1 [Compound 17]
Emax (M1 muscarinic receptor): < 25% | M1 Activity (M1 muscarinic receptor): + (activity was measured to be greater than 5.0 μM) | Emax (M4 muscarinic receptor): 25 to 100% | M4 Activity (M4 muscarinic receptor): ++ (activity was measured to be from 1.0 μM to 5.0 μM) | Emax (M2 muscarinic receptor): < 25% | M2 Activity (M2 muscarinic receptor): + (activity was measured to be greater than 5.0 μM) | Emax (M3 muscarinic receptor): < 25% | M3 Activity (M3 muscarinic receptor): + (activity was measured to be greater than 5.0 μM)

COc1ccc(F)cc1C1CCN(C[C@H]2C[C@H]3C=C[C@H]2C3)CC1 [Compound 18]
Emax (M1 muscarinic receptor): 25 to 100% | M1 Activity (M1 muscarinic receptor): +++ (activity was measured to be less than 1.0 μM) | Emax (M4 muscarinic receptor): 25 to 100% | M4 Activity (M4 muscarinic receptor): +++ (activity was measured to be less than 1.0 μM) | Emax (M2 muscarinic receptor): 25 to 100% | M2 Activity (M2 muscarinic receptor): +++ (activity was measured to be less than 1.0 μM) | Emax (M3 muscarinic receptor): < 25% | M3 Activity (M3 muscarinic receptor): + (activity was measured to be greater than 5.0 μM)

CCC(=O)COc1ccccc1C1CCN([C@H]2C[C@H]3CC[C@H]2C3)CC1 [Compound 19]
Emax (M1 muscarinic receptor): 25 to 100% | M1 Activity (M1 muscarinic receptor): ++ (activity was measured to be from 1.0 μM to 5.0 μM) | Emax (M4 muscarinic receptor): 25 to 100% | M4 Activity (M4 muscarinic receptor): +++ (activity was measured to be less than 1.0 μM) | Emax (M2 muscarinic receptor): < 25% | M2 Activity (M2 muscarinic receptor): + (activity was measured to be greater than 5.0 μM) | Emax (M3 muscarinic receptor): < 25% | M3 Activity (M3 muscarinic receptor): + (activity was measured to be greater than 5.0 μM)

COc1ccc(-c2ccc([S+](C)[O-])cc2)cc1C1CCN(C2CCOCC2)CC1 (centres unmarked) [Compound 22]
Emax (M1 muscarinic receptor): < 25% | M1 Activity (M1 muscarinic receptor): + (activity was measured to be greater than 5.0 μM) | Emax (M4 muscarinic receptor): < 25% | M4 Activity (M4 muscarinic receptor): + (activity was measured to be greater than 5.0 μM) | Emax (M2 muscarinic receptor): < 25% | M2 Activity (M2 muscarinic receptor): + (activity was measured to be greater than 5.0 μM) | Emax (M3 muscarinic receptor): < 25% | M3 Activity (M3 muscarinic receptor): + (activity was measured to be greater than 5.0 μM)

Cc1ccccc1C1CCN([C@H]2C[C@H]3CC[C@H]2C3)CC1 [Compound 24]
Emax (M1 muscarinic receptor): 25 to 100% | M1 Activity (M1 muscarinic receptor): ++ (activity was measured to be from 1.0 μM to 5.0 μM) | Emax (M4 muscarinic receptor): 25 to 100% | M4 Activity (M4 muscarinic receptor): +++ (activity was measured to be less than 1.0 μM) | Emax (M2 muscarinic receptor): 25 to 100% | M2 Activity (M2 muscarinic receptor): ++ (activity was measured to be from 1.0 μM to 5.0 μM) | Emax (M3 muscarinic receptor): < 25% | M3 Activity (M3 muscarinic receptor): + (activity was measured to be greater than 5.0 μM)

COc1ccccc1C1(O)CCN(C2CC3CCC2C3)CC1 (centres unmarked) [Compound 25]
Emax (M1 muscarinic receptor): < 25% | M1 Activity (M1 muscarinic receptor): + (activity was measured to be greater than 5.0 μM) | Emax (M4 muscarinic receptor): < 25% | M4 Activity (M4 muscarinic receptor): + (activity was measured to be greater than 5.0 μM) | Emax (M2 muscarinic receptor): < 25% | M2 Activity (M2 muscarinic receptor): + (activity was measured to be greater than 5.0 μM) | M3 Activity (M3 muscarinic receptor): + (activity was measured to be greater than 5.0 μM)

CC(C)Oc1ccccc1C1CCN([C@H]2C[C@H]3CC[C@H]2C3)CC1 [Compound 26]
Emax (M1 muscarinic receptor): 25 to 100% | M1 Activity (M1 muscarinic receptor): ++ (activity was measured to be from 1.0 μM to 5.0 μM) | Emax (M4 muscarinic receptor): 25 to 100% | M4 Activity (M4 muscarinic receptor): +++ (activity was measured to be less than 1.0 μM) | Emax (M2 muscarinic receptor): < 25% | M2 Activity (M2 muscarinic receptor): + (activity was measured to be greater than 5.0 μM) | Emax (M3 muscarinic receptor): < 25% | M3 Activity (M3 muscarinic receptor): + (activity was measured to be greater than 5.0 μM)
